In patent US20190127381A1, “SUBSTITUTED FUSED PYRIMIDINONE COMPOUNDS” (TORRENT PHARMACEUTICALS LIMITED, priority 2016, published 2019):

Tests used:
[1] = target: T1, purified recombinant human PI3K enzyme δ (Homo sapiens, UniProt O00329); assay: Inhibition of PI3-Kinase enzymatic activity (HTRF enzyme assay), δ; format: biochemical; conditions: 1 μM compound; PI3K δ 50 ng/well; PIP2 10 μM; ATP 200 μM; read-out: Percentage inhibition of PI3K activity, δ
T1 construct: purchased Invitrogen, USA
Method in brief: (§1)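 HTRF assay with compound at 1 μM (1.0% DMSO), recombinant human PI3Kδ (50 ng/well) or γ (100 ng/well) and PIP2 (10 μM), preincubated 15 min at room temperature. ATP (δ 200 μM, γ 50 μM) was then added for 30 min at room temperature. Percent inhibition was derived from the 665/615 nm signal ratio.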

[2] = target: T2, purified recombinant human PI3K enzyme γ (Homo sapiens, UniProt P48736); assay: Inhibition of PI3-Kinase enzymatic activity (HTRF enzyme assay), γ; format: biochemical; conditions: 1 μM compound; PI3K γ 100 ng/well; PIP2 10 μM; ATP 50 μM; read-out: Percentage inhibition of PI3K activity, γ
T2 construct: purchased Invitrogen, USA
Method in brief: as §1

[3] = system: OVA induced pulmonary inflammatory cell accumulation in BAL fluid; assay: Ovalbumin (OVA) model of airway inflammation (asthma) in mice; format: in vivo; conditions: OVA challenge
Description: Allergen chicken egg ovalbumin (OVA) model, which shares features similar to human allergic asthma, including the presence of eosinophilic and lymphocytic lung inflammation, is frequently used for model for asthma. Ovalbumin is an inert protein that is not intrinsically immunogenic and therefore needs to be injected systemically in the presence of an adjuvant, typically aluminum hydroxide (alum), to induce Th2-driven response in mice (Curr. Protoc. Mouse Biol. 6:169-184, 2016).
Ovalbumin (20 μg) (OVA, Sigma Aldrich, St. Louis, Mo.), emulsified with inject alum (1 mg, 0.2 mL) was administered in mice intraperitoneally (i.p.) on days 1 and 14 for sensitization, and then challenged with OVA (0.5% w/v) exposure for 30 minutess using nebulizer on days 21, 22 and 23 in Compound no 44 treated and vehicle control animals. Saline control mice received normal saline as sensitization and challenge dose in similar fashion.
Lung delivery of compound of present invention was achieved by whole body aerosol exposure using nebulizer for 25 minutes in a chamber. Mice were divided in different dose groups and exposed in a chamber for 25 minutes with vehicle or Compound no 44 (1 mg/ml or 3 mg/ml). Test compound/vehicle was administered once daily for 5 days starting from day 20 till day 24. On each challenge day treatment was administered 2 hr before OVA challenge. Bronchoalveolar lavage (BAL) was performed 48 hr post last OVA exposure (i.e. on day 25).
Trachea of animal was cannulated using catheter. Phosphate Buffer Saline (PBS) was used as lavage fluid. A volume of 0.5 ml was gently instilled and withdrawn and collected in microcentrifuge tube placed on ice. This procedure was repeated further 3 times.
(§2) Lavage fluid was separated from cells by centrifugation and supernatant separated. The cell pallet was resuspended in known volume of PBS. Cells in aliquot were stained using Turk solution and total cell numbers were calculated by counting Turk stained aliquot under microscope using haemocytometer.
The residual cell suspension was resuspended with PBS and slides prepared using cyto centrifuge technique (Cytospin 4, Thermo Shandon). The slides were then fixed with methanol, air dried and stained with May Grunwald Giemsa stain. Up to 300 cells were counted and differentiated using standard morphometric techniques under light microscopy.
All results are presented at individual data for each animal and mean value calculated for each group. Percentage inhibition for each cell type is calculated as below.
% inhibition=[(Vehicle treatment−Drug treatment)/(Vehicle treatment−Saline treatment)]*100

[4] = system: cigarette smoke induced Neutrophil accumulation in BAL Fluid; assay: Acute guinea pig model of airway inflammation (tobacco smoke, COPD); format: in vivo; conditions: for % Inhibition of neutrophil against vehicle group: exposure 56 minutes; for Neutrophil (*10^6 cells/animal) in BAL fluid: whole body aerosol exposure 56 minutes, day 6 to day 11, Mean ± SEM
From the text: The tobacco smoke induced airway inflammation model is used for in vivo efficacy of compound. Many investigators have used acute tobacco smoke (TS) exposure in rodents as models of airway inflammation for quick screening of anti-inflammatory therapies for COPD (J Pharmacol Exp Ther. 2008; 324(3):921-9; J Pharmacol Exp Ther. 2010; 332(3):764-75; Journal of Inflammation 2013, 10(Suppl 1):31 and Eur Respir J Suppl 2006; 663s:3850). Given its position as predominant cause of COPD, animal models using TS exposure would appear to be the logical choice for investigation (Respir Res. 2004; 2;5:18).
Guinea pigs were exposed to tobacco smoke (TS) in an acrylic chamber. Animals were exposed to TS from 5, 10, 15 cigarettes on day 1, day 2, day 3 respectively. From day 4 onwards till day 11, animals were exposed to TS from 15 cigarettes per day. On 11 days of exposure of guinea pig to TS, significant inflammatory cell recruitment, predominantly neutrophils, to lungs was observed as compared to air exposed control guinea pig (BALF neutrophil levels, 0.59±0.15*10^6 cells/animal in air control group vs 8.3±1.4*10^6cells/animal in smoke exposed vehicle group)
Lung delivery of test compound was achieved by whole body aerosol exposure using nebulizer for 56 minutes in a chamber. Guinea pig were divided in different dose groups and exposed in a chamber for 56 minutes with vehicle or Compound No. 39 (1 mg/ml or 3 mg/ml). A total quantity of 6.0 ml of either vehicle or test compound formulation was nebulized in chambers to respective groups over 56 mins period. Test compound was administered 2 hr prior to TS exposure from day 6 to day 11. Bronchoalveolar lavage (BAL) was performed 24 hr post last TS exposure.
Trachea of animal was cannulated using catheter. Phosphate Buffer Saline (PBS) was used as lavage fluid. A volume of 5.0 ml was gently instilled and withdrawn and collected in microcentrifuge tube placed on ice. This procedure was repeated further 5 times.
as §2
The residual cell suspension was resuspended and slides prepared using cyto centrifuge technique (Cytospin 4, Thermo Shandon). […] Up to 300 cells were counted and differentiated using standard morphometric techniques under light microscopy.
All results are presented at individual data for each animal and mean value calculated for each group. Percentage inhibition for the neutrophil was calculated for Compound No 39 treatment group against vehicle group.

[5] = 1 mg/ml nebulized 25 minutes once daily for 5 days
[6] = 3 mg/ml nebulized 25 minutes once daily for 5 days

T1 sequence (O00329 whole entry): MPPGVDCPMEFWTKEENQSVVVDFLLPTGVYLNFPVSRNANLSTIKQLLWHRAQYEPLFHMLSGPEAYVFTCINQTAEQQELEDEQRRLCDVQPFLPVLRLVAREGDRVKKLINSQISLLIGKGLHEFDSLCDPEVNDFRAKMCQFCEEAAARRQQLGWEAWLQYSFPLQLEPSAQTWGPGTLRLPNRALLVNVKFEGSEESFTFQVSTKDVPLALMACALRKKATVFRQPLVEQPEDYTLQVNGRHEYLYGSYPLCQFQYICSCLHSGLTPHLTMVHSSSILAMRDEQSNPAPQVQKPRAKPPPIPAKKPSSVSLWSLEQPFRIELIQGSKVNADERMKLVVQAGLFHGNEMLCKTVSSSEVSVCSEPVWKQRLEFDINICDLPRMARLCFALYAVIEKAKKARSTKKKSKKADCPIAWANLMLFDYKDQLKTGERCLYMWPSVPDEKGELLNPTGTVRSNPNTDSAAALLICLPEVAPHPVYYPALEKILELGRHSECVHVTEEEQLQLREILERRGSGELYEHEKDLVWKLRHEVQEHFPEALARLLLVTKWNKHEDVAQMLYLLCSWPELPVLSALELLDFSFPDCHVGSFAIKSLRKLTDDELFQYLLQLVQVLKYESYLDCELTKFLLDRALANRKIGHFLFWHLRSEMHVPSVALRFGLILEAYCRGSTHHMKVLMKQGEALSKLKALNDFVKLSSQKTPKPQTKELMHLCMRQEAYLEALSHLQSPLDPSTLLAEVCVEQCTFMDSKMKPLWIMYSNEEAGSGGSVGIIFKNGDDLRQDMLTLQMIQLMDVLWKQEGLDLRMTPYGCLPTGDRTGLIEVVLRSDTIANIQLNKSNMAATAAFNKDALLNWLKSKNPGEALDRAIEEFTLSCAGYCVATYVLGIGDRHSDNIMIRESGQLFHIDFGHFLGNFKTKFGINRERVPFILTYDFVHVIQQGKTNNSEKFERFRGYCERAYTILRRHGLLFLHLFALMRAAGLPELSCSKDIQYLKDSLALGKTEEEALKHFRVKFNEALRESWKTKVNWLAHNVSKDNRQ
T1 sequence (P27986 whole entry partner): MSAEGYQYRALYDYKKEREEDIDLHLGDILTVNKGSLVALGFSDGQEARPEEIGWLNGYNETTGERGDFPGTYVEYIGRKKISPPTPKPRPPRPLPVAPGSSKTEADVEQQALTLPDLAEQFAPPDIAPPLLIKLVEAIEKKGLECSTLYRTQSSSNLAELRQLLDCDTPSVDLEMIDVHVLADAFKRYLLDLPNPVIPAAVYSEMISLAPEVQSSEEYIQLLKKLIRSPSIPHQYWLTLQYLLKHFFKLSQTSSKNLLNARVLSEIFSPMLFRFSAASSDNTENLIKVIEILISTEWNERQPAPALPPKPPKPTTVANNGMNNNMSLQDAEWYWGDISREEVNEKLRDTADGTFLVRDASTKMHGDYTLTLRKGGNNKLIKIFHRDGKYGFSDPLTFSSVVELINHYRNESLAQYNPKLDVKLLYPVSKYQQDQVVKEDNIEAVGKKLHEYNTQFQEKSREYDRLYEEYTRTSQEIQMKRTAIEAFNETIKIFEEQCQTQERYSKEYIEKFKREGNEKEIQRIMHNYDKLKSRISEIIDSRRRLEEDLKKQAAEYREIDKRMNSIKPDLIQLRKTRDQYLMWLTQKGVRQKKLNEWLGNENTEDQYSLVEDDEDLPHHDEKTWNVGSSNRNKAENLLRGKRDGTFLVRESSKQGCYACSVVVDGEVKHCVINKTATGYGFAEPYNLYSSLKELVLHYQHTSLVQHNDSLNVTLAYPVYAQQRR
T2 sequence (P48736 whole entry): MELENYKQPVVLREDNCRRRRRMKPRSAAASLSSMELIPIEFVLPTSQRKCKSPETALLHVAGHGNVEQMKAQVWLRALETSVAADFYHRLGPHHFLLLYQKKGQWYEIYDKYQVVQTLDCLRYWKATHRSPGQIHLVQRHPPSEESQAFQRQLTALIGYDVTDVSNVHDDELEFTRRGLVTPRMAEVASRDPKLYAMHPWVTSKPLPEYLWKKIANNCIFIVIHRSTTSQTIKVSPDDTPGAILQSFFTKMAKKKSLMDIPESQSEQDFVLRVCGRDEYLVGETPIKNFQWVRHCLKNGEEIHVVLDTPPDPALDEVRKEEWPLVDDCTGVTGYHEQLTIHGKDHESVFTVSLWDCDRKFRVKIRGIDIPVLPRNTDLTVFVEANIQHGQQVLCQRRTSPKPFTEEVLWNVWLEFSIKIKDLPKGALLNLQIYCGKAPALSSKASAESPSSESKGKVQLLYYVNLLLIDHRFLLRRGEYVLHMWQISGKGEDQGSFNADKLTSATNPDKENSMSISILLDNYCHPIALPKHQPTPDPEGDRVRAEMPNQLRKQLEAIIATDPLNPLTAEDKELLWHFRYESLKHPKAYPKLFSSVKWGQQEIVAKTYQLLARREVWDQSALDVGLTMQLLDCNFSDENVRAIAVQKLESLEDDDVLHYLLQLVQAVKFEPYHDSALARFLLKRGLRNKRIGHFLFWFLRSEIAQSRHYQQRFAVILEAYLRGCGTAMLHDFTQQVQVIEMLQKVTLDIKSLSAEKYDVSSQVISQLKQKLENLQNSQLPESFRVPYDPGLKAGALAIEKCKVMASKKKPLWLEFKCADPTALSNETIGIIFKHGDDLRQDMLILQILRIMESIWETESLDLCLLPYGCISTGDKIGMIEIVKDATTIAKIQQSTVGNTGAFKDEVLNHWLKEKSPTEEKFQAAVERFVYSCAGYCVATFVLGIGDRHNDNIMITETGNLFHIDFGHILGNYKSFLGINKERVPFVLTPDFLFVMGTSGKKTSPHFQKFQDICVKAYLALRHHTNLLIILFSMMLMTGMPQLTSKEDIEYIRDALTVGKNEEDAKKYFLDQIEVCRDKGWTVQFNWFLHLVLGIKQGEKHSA

Compound	inhibition at 1 µM [1] [%]	inhibition at 1 µM [2] [%]	reduced eosinophil influx (% inhibition) in BAL fluid [3, 5] [%]	reduced lymphocyte influx (% inhibition) in BAL fluid [3, 5] [%]	reduced eosinophil influx (% inhibition) in BAL fluid [3, 6] [%]	reduced lymphocyte influx (% inhibition) in BAL fluid [3, 6] [%]	% Inhibition of neutrophil against vehicle group ([4]; 1 mg/ml nebulized) [%]	Neutrophil (*10^6 cells/animal) in BAL fluid ([4]; 1 mg/ml nebulized)	% Inhibition of neutrophil against vehicle group ([4]; 3 mg/ml nebulized) [%]	Neutrophil (*10^6 cells/animal) in BAL fluid ([4]; 3 mg/ml nebulized)
Cn1cc(-c2cccc3nc(Cn4nc(-c5ccc(O)c6c5CC(C)(C)O6)c5c(N)ncnc54)n(-n4cccc4)c(=O)c23)cn1 [Compound No. 44, 2-{[4-amino-3-(7-hydroxy-2,2-dimethyl-2,3-dihydro-1-benzofuran-4-yl)-1H-pyrazolo[3,4-d]pyrimidin-1-yl]methyl}-5-(1-methyl-1H-pyrazol-4-yl)-3-(1H-pyrrol-1-yl)quinazolin-4(3H)-one]	80 to 100	80 to 100	42	27	56	39				
Cc1cccc2nc(Cn3nc(-c4ccc(O)c5c4CC(C)(C)O5)c4c(N)ncnc43)n(-n3c(C)ccc3C)c(=O)c12 [Compound No. 39, 2-{[4-amino-3-(7-hydroxy-2,2-dimethyl-2,3-dihydro-1-benzofuran-4-yl)-1H-pyrazolo[3,4-d]pyrimidin-1-yl]methyl}-3-(2,5-dimethyl-1H-pyrrol-1-yl)-5-methylquinazolin-4(3H)-one]	80 to 100	80 to 100					22	6.5 ± 3.2 *10^6 cells/animal	68	2.7 ± 1.4 *10^6 cells/animal
